{
  "source": "patent US10774065B2",
  "about": "“1-pyridazin-/triazin-3-yl-piper(-azine)/idine/pyrolidine derivatives and compositions thereof for inhibiting the activity of SHP2” (NOVARTIS AG, priority 2014, dated 2020)",
  "target": "SHP2 (Homo sapiens (Human), UniProt Q06124)",
  "sequence (Q06124 whole entry)": "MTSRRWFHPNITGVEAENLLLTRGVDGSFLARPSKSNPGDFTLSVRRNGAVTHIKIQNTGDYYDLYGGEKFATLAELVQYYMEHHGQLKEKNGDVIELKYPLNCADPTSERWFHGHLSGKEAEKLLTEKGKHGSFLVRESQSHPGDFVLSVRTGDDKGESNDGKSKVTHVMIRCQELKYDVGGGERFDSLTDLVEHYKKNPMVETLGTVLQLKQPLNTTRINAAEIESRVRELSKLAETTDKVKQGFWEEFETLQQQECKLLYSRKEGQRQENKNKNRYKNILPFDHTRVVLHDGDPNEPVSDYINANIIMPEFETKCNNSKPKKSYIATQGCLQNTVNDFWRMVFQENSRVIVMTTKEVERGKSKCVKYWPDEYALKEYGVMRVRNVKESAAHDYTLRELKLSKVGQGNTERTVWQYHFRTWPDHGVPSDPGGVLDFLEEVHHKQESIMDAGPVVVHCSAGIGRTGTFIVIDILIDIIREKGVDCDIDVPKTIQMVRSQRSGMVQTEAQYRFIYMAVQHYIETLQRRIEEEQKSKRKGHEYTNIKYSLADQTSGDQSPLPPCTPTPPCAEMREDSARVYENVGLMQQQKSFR",
  "assay": "SHP2 Allosteric Inhibition Assay (DiFMUP prompt fluorescence)",
  "type": "biochemical",
  "conditions": "0.5 nM SHP2 activated with 0.5 μM peptide IRS1_pY1172(dPEG8)pY1222; substrate DiFMUP; 25° C.",
  "data": [
    {"molecule": "C[C@]1(CN)CCN(c2cnc(-c3cccc(Cl)c3Cl)c(N)n2)C[C@H]1O", "note": "(single isomer, unassigned) [11 P2]", "values": [
      {"measurement": "IC50", "result": 164, "unit": "nM"}
    ]},
    {"molecule": "C[C@]1(CN)CCN(c2cnc(-c3cccc(Cl)c3Cl)c(N)n2)C[C@H]1O", "note": "(single isomer, unassigned) [11 P1]", "values": [
      {"measurement": "IC50", "result": 38, "unit": "nM"}
    ]}
  ]
}
